From US20260070887A1 (Shenzhen Zhongge Biological Technology Co., Ltd., priority 2022, published 2026)

What was measured:
HCC1954 cells = assay: HCC1954 cell proliferation (Cell Titer-Glo, 6 days); type: cell-based; details: KIF18A-sensitive tumor cells
How it was run: (§1)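 HCC1954 (KIF18A-sensitive) and HCC1395 (KIF18A-insensitive) cells were grown in RPMI-1640 with 20% FBS, seeded overnight, then exposed to compound for 6 days at 37 °C. Viability was read by CellTiter-Glo luminescence. Inhibition is relative to 0.1% DMSO control, and IC50 was derived by nonlinear regression.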

HCC1395 cells = assay: HCC1395 cell proliferation (Cell Titer-Glo, 6 days); type: cell-based; details: KIF18A-insensitive tumor cells
How it was run: as §1

| SMILES | IC50 (HCC1954 cells) [nM] | IC50 (HCC1395 cells) [nM] | IC50 (HCC1954 cells; Homo sapiens, HCC1954, 144 h) [nM] | IC50 (HCC1395 cells; Homo sapiens, HCC1395, 144 h) [nM] |
| --- | --- | --- | --- | --- |
| Nc1cc(NS(=O)(=O)CCO)cc(N2CCC3(CC2)CC3)c1C(=O)Nc1cccc(N2CCC(F)(F)CC2)c1 [Example 1, 2-amino-N-(3-(4,4-difluoropiperidin-1-yl)phenyl)-4-((2-hydroxyethyl)sulfonamide)-6-(6-azaspiro[2.5]octan-6-yl)benzamide] | ≤ 10 | > 5000 |  |  |
| CNc1cc(NS(=O)(=O)CCO)cc(N2CCC3(CC2)CC3)c1C(=O)Nc1cc(C)nc(N2CCC(F)(F)CC2)n1 [Example 4, N-(2-(4,4-difluoropiperidin-1-yl)-6-methylpyrimidin-4-yl)-4-(2-hydroxyethylsulfonamide)-2-methylamino-6-(6-azaspiro[2.5]octan-6-yl)benzamide] | ≤ 10 | > 5000 |  |  |
| O=C(Nc1cccc2c1cc1n2CCOC1)c1ccc(NS(=O)(=O)CCO)cc1N1CCC2(CC1)CC2 [Example 235, N-(3,4-dihydro-1H-[1, 4]oxazino[4,3-a]indol-9-yl)-4-(2-hydroxyethylsulfonamido)-2-(6-azaspiro[2.5]octan-6-yl)benzamide] |  |  | ≤ 10 | > 5000 |
| O=C(Nc1cccc2c1cc1n2CCOC1)c1ccc(NS(=O)(=O)CCO)cc1N1CCC(=C(F)F)CC1 [Example 319, 2-(4-difluoromethylene)piperidin-1-yl-N-(3,4-dihydro-1H-[1,4]oxazino[4,3-a]indol-9-yl)-4-((2-hydroxyethyl)sulfonamide) benzamide] | 10 to 500 | > 5000 |  |  |
